Experiments:
Type in all cases: cell-based
[1] = target: T1, JAK1 (Homo sapiens, UniProt P23458); assay: Western blot assay, JAK1 protein degradation; settings: MHH-CALL-4 cells, vehicle control = 100%
T1 construct: endogenous in cells; host or cells: MHH-CALL-4
Experimental: (§1) Western blot assay: MHH-CALL-4 Cells were washed twice with ice-cold PBS and lysed in RIPA lysis buffer (Sigma) freshly supplemented with Halt™ Protease Inhibitor Cocktail (ThermoFisher) for 15 minutes on ice. The cell pellet was removed by centrifugation at 13,000 g at 4° C. for 15 minutes. Protein concentration was measured by BCA assay (Thermo Fisher Scientific). Proteins were denatured in NuPAGE LDS 4× sample buffer supplemented with reducing agents (Invitrogen). Typically, 10-20 μg of total protein was loaded per lane on a 4%-12% NUPAGE Bis-Tris gradient gel (Invitrogen) and analyzed by standard immunoblotting and imaged using Li—COR Odyssey CLx (LI-COR Biotechnology, Lincoln, NE). To access the protein degradation, the signal of target protein was normalized by the signal of ACBT and the signal of vehicle control was set as 100%. Primary antibodies used were: JAK1 (Cell Signaling #3332S), JAK2 (#3230S), JAK3 (#8827S), TYK2 (#9312S), GSPT1 (#14980S), CRBN (#71810S), IKZF1 (Santa Cruz Biotechnology, SC-398265) and ACBT (Santa Cruz Biotechnology, SC-47778).

[2] = tested on: MHH-CALL-4 cells; assay: Cytotoxicity assay (resazurin, 72 hours); design: AUC: unit not given beside the values; settings: for EC50: MHHCALL4, resazurin; for AUC: area under the dose-response curve
Experimental: Cytotoxicity assay: MHH-CALL-4 cells were maintained in RPMI1640 medium (Invitrogen) supplemented with 10% FBS (Hyclone), Penicillin/Streptomycin (100 units/mL) and Glutamine (100 μM). 2×10^5 cells were seeded in 100 μl medium/well in 96 well assay plates (Corning 3603). Assays were performed in triplicate; compounds to be screened were added to assay plates from DMSO stock solutions by pin transfer using 50SS pins (V&P Scientific). The assay plates incubated at 37° C. in 5% CO2 for 72 hours. Cells were then incubated for four hours with resazurin (Sigma) solution and read on a Synergy HT plate reader (Biotek, Winooski, VT). High-throughput assay data was analyzed using our in-house Robust Interpretation of Screening Experiments (RISE) application written in Pipeline Pilot (Biovia, v. 17.2.0) and the R program (R Core Team, 2013). All the AUC (area under the dose-response curve) per compound calculated from its dose response curve by RISE protocol. Selected data were plotted and analyzed by GraphPad Prism software v7 using non-linear regression curve fitting.

[3] = target: T2, JAK3 (Homo sapiens, UniProt P52333); assay: Western blot assay, JAK3 protein degradation; settings: MHHCALL4; 100 nM, 24 h; MHH-CALL-4 cells; vehicle control = 100%; read-out: Target Protein Degradation (% remaining at 100 nM, 24 h) JAK3
T2 construct: endogenous in cells; host or cells: MHH-CALL-4
T2 sequence (P52333 1-1124): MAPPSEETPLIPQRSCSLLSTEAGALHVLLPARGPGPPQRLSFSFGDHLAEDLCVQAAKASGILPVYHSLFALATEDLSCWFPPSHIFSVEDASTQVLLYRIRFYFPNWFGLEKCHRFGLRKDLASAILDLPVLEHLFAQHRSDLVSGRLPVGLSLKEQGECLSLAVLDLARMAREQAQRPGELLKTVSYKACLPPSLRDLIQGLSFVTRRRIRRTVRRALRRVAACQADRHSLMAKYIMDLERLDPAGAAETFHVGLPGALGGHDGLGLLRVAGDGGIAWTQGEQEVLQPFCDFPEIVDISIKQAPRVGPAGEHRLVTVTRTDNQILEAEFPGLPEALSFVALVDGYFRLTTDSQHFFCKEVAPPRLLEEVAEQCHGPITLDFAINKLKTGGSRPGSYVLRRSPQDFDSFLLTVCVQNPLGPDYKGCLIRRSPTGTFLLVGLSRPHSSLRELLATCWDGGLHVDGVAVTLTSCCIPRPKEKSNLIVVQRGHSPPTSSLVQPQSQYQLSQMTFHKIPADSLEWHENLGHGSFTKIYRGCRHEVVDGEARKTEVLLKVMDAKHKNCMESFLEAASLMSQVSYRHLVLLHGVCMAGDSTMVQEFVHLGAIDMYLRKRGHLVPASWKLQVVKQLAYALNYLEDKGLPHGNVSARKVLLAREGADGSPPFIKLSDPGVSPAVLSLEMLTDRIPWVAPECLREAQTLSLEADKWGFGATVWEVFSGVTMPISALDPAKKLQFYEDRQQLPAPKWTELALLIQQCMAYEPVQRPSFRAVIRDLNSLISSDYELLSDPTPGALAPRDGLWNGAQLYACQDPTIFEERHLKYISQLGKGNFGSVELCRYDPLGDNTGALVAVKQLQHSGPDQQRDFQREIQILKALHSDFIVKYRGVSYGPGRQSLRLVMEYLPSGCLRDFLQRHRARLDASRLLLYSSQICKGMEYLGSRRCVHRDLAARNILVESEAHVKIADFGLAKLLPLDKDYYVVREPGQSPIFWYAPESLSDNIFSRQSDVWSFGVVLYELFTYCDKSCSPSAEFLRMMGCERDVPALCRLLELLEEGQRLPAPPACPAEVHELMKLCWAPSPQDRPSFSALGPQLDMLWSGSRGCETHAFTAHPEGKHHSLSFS
Experimental: as §1

[4] = target: T3, GSPT1 (Homo sapiens, UniProt P15170); assay: Western blot assay, GSPT1 neosubstrate degradation; settings: MHHCALL4; 100 nM, 24 h; MHH-CALL-4 cells; vehicle control = 100%
T3 construct: endogenous in cells; host or cells: MHH-CALL-4
T3 sequence (P15170 whole entry): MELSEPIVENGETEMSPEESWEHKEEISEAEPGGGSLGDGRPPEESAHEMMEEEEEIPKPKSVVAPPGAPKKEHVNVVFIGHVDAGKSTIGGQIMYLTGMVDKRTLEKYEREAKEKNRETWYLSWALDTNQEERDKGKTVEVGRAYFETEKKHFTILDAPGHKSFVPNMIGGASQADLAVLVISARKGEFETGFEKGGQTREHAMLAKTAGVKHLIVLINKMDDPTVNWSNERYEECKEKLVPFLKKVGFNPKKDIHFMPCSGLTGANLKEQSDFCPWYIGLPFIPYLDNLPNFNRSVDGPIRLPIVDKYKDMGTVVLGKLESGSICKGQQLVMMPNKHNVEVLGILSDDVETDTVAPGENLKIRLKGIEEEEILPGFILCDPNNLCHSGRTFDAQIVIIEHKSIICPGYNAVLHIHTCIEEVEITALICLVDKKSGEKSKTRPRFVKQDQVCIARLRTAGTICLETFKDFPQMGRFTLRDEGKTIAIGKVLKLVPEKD
Experimental: as §1

[5] = tested on: JAK2; assay: Western blot assay, JAK2 protein degradation; settings: MHH-CALL-4 cells, vehicle control = 100%
Experimental: as §1

T1 sequence (P23458 whole entry): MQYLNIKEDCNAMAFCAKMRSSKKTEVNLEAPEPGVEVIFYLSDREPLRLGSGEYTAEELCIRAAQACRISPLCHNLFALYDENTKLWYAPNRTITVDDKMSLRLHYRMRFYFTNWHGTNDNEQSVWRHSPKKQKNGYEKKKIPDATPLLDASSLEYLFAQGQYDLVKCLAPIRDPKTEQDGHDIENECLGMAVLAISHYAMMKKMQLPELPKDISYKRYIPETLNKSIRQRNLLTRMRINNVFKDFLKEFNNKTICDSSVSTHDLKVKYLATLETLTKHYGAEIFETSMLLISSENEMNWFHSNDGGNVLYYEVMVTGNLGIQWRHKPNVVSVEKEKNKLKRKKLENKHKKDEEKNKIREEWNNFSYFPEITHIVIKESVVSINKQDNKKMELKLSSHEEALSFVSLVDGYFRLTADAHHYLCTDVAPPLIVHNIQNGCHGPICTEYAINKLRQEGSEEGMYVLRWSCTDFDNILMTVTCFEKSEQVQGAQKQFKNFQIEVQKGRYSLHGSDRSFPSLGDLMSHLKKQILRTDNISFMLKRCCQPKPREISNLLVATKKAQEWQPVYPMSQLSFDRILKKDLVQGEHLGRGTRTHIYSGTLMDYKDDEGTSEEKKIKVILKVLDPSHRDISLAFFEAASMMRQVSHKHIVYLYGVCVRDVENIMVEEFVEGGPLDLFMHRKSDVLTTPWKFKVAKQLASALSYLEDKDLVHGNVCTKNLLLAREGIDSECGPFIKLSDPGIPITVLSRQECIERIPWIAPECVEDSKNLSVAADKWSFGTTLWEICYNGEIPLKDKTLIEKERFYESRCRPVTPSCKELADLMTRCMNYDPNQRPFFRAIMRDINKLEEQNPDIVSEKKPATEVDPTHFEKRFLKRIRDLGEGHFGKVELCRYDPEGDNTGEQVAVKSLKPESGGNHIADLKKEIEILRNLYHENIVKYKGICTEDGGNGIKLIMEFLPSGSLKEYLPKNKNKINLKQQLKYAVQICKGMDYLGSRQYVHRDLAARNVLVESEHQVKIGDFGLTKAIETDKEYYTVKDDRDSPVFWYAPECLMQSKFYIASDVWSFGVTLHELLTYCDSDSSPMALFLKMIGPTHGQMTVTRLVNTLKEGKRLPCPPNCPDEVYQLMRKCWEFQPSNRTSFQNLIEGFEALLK

Row | Target Protein Degradation (% remaining at 100 nM, 24 h) JAK1 [1] [% remaining] | remaining activity at 0.1 µM [3] [%] | remaining activity at 0.1 µM [4] [%] | Compound | EC50 [2] [nM] | AUC [2] | Target Protein Degradation (% remaining at 100 nM, 24 h) JAK2 [5] [% remaining]
1 | 110 | 70 | 130 | CCS(=O)(=O)N1CC(CC#N)(n2cc(-c3nc(Nc4ccc(C(=O)NCCOCCOc5ccc(C6CCC(=O)NC6=O)cc5)cc4)nc4[nH]ccc34)cn2)C1 (centres unmarked) [Compound 11] | > 10000 |  | 90
2 | 64 | 62 | 51 | CCS(=O)(=O)C1CC(CC#N)(n2cc(-c3nc(Nc4ccc(C(=O)NC5CCN(c6ccc7c(c6)C(=O)N(C6CCC(=O)NC6=O)C7=O)CC5)cc4)nc4[nH]ccc34)cn2)C1 (centres unmarked) [Compound 29] | 4.3 | 262 | 14
3 | 72 | 61 | 103 | N#CC[C@H](C1CCCC1)n1cc(-c2nc(Nc3ccc(C(=O)NCCN4CCN(c5ccc6c(c5)C(=O)N(C5CCC(=O)NC5=O)C6=O)CC4)cc3)nc3[nH]ccc23)cn1 (some centres unmarked) [Compound 22] | 18.1 | 141 | 36
4 | 87 | 112 | 129 | CCS(=O)(=O)N1CC(CC#N)(n2cc(-c3nc(Nc4ccc(C(=O)NCCCCN5CCN(c6ccc(C7CCC(=O)NC7=O)cc6)CC5)cc4)nc4[nH]ccc34)cn2)C1 (centres unmarked) [Compound 19] | 1450 | 225 | 34
5 | 128 | 37 | 84 | CCS(=O)(=O)N1CC(CC#N)(n2cc(-c3nc(Nc4ccc(C(=O)NCCCCCCNc5ccc(C6CCC(=O)NC6=O)cc5)cc4)nc4[nH]ccc34)cn2)C1 (centres unmarked) [Compound 1] | 0.8 | 231 | 34
6 | 114 | 56 | 88 | CCS(=O)(=O)N1CC(CC#N)(n2cc(-c3nc(Nc4ccc(C(=O)NCCN5CCN(c6cccc(C7CCC(=O)NC7=O)c6)CC5)cc4)nc4[nH]ccc34)cn2)C1 (centres unmarked) [Compound 40, 4-((4-(1-(3-(cyanomethyl)-1-(ethylsulfonyl)azetidin-3-yl)-1H-pyrazol-4-yl)-7H-pyrrolo[2,3-d]pyrimidin-2-yl)amino)-N-(2-(4-(3-(2,6-dioxopiperidin-3-yl)phenyl)piperazin-1-yl)ethyl)benzamide] | 1.9 | 139 | 36
7 | 69 | 56 | 46 | CCS(=O)(=O)N1CC(CC#N)(n2cc(-c3nc(Nc4ccc(C(=O)NCCC5CCN(c6ccc7c(c6)C(=O)N(C6CCC(=O)NC6=O)C7=O)CC5)cc4)nc4[nH]ccc34)cn2)C1 (centres unmarked) [Compound 32] | 1.3 | 251 | 21
8 | 59 | 11 | 74 | CCS(=O)(=O)N1CC(CC#N)(n2cc(-c3nc(Nc4ccc(C(=O)N5CCC(CN6CCN(c7ccc(C8CCC(=O)NC8=O)cc7)CC6)CC5)cc4)nc4[nH]ccc34)cn2)C1 (centres unmarked) [Compound 49, 2-(3-(4-(2-((4-(4-((4-(4-(2,6-dioxopiperidin-3-yl)phenyl)piperazin-1-yl)methyl)piperidine-1-carbonyl)phenyl)amino)-7H-pyrrolo[2,3-d]pyrimidin-4-yl)-1H-pyrazol-1-yl)-1-(ethylsulfonyl)azetidin-3-yl)acetonitrile] | 4 | 199 | 13
9 | 126 | 53 | 84 | CCCn1cc(-c2nc(Nc3ccc(C(=O)NCCN4CCN(c5ccc6c(c5)C(=O)N(C5CCC(=O)NC5=O)C6=O)CC4)cc3)nc3[nH]ccc23)cn1 (centres unmarked) [Compound 39, N-(2-(4-(2-(2,6-dioxopiperidin-3-yl)-1,3-dioxoisoindolin-5-yl)piperazin-1-yl)ethyl)-4-((4-(1-propyl-1H-pyrazol-4-yl)-7H-pyrrolo[2,3-d]pyrimidin-2-yl)amino)benzamide] | 33.1 | 221 | 61
10 | 112 | 97 | 127 | CCS(=O)(=O)N1CC(CC#N)(n2cc(-c3nc(Nc4ccc(C(=O)NCCCN5CCC(c6ccc7c(c6)CN(C6CCC(=O)NC6=O)C7=O)CC5)cc4)nc4[nH]ccc34)cn2)C1 (centres unmarked) [Compound 28] | 16.8 | 223.00 | 83
11 | 107 | 92 | 118 | CCS(=O)(=O)C1CC(CC#N)(n2cc(-c3nc(Nc4ccc(C(=O)N5CCC(c6ccc7c(c6)C(=O)N(C6CCC(=O)NC6=O)C7=O)CC5)cc4)nc4[nH]ccc34)cn2)C1 (centres unmarked) [Compound 27] | 289 | 143 | 68

Row | Compound | Target Protein Degradation (% remaining at 100 nM, 24 h) JAK1 [1] [% remaining] | remaining activity at 0.1 µM [3] [%] | remaining activity at 0.1 µM [4] [%] | EC50 [2] [nM] | AUC [2] | Target Protein Degradation (% remaining at 100 nM, 24 h) JAK2 [5] [% remaining]
12 | CCS(=O)(=O)N1CC(CC#N)(n2cc(-c3nc(Nc4ccc(C(=O)NCCCN5CC6CCC(C5)N6c5ccc(C6CCC(=O)NC6=O)cc5)cc4)nc4[nH]ccc34)cn2)C1 (centres unmarked) [Compound 55, 4-((4-(1-(3-(cyanomethyl)-1-(ethylsulfonyl)azetidin-3-yl)-1H-pyrazol-4-yl)-7H-pyrrolo[2,3-d]pyrimidin-2-yl)amino)-N-(3-(8-(4-(2,6-dioxopiperidin-3-yl)phenyl)-3,8-diazabicyclo[3.2.1]octan-3-yl)propyl)benzamide] | 113 | 44 | 75 | 596 | 149 | 19

From patent US20240124465A1, “MOLECULES AND METHODS RELATED TO TREATMENT OF DISORDERS ASSOCIATED WITH JAK-2 SIGNALING DYSFUNCTION” (ST. JUDE CHILDREN'S RESEARCH HOSPITAL, priority 2020, published 2024)
